Measured values from BindingDB's records for doi:10.1016/s0960-894x(01)00095-6 (Seoul National University, 2001).

These compounds were tested against Methionine--tRNA ligase (Escherichia coli) (UniProt P00959) (assay: Inhibition of [35S]methionyl incorporation by Escherichia coli methionyl-tRNA synthetase (MetRS)).
Chain of Methionine--tRNA ligase (Escherichia coli) (P00959 whole entry, looked up): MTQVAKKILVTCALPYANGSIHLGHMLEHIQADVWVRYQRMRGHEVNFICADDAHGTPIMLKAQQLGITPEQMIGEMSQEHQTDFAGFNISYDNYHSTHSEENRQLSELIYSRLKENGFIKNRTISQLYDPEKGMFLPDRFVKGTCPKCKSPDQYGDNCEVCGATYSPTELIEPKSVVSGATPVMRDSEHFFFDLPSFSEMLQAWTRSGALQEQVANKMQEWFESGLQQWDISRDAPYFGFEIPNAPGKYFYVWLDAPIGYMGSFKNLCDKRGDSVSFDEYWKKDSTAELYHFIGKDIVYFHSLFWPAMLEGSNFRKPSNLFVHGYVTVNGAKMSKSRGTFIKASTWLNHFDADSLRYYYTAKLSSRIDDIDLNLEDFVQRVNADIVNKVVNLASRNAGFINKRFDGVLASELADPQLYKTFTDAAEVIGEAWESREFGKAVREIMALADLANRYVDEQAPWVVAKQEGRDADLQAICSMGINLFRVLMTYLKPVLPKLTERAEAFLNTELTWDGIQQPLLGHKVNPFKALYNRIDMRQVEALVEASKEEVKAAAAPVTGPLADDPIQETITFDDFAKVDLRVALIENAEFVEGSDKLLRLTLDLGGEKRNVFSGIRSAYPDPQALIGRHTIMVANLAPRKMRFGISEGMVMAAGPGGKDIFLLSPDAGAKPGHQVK

IC50 [µM]	Structure (SMILES)
5	CSCC[C@H](N)C(=O)OC[C@H]1O[C@@H](n2cnc3c(N)ncnc32)[C@H](O)[C@@H]1O [(S)-1-[(2R,3S,4R,5R)-5-(6-Amino-purin-9-yl)-3,4-dihydroxy-tetrahydro-furan-2-ylmethoxycarbonyl]-3-methylsulfanyl-propyl-ammonium]
23	CSCC[C@H](N)C(=O)N(O)C[C@H]1O[C@@H](CCn2cnc3c(NCc4ccccc4)ncnc32)[C@H](O)[C@@H]1O [(S)-1-({(2R,3S,4R,5S)-5-[2-(6-Benzylamino-purin-9-yl)-ethyl]-3,4-dihydroxy-tetrahydro-furan-2-ylmethyl}-hydroxy-carbamoyl)-3-methylsulfanyl-propyl-ammonium]
34	CSCC[C@H](N)C(=O)N(O)C[C@H]1O[C@@H](CCn2nnc(-c3ccccc3)n2)[C@H](O)[C@@H]1O [(S)-1-({(2R,3S,4R,5S)-3,4-Dihydroxy-5-[2-(5-phenyl-tetrazol-2-yl)-ethyl]-tetrahydro-furan-2-ylmethyl}-hydroxy-carbamoyl)-3-methylsulfanyl-propyl-ammonium]
12.2	CSCC[C@H](N)C(=O)OC[C@H]1O[C@@H](Cn2nnc(-c3ccccc3)n2)[C@H](O)[C@@H]1O [(S)-1-[(2R,3S,4R,5S)-3,4-Dihydroxy-5-(5-phenyl-tetrazol-2-ylmethyl)-tetrahydro-furan-2-ylmethoxycarbonyl]-3-methylsulfanyl-propyl-ammonium]
3.6	CSCC[C@H](N)C(=O)OC[C@H]1O[C@@H](Cn2cnc3c(N)ncnc32)[C@H](O)[C@@H]1O [(S)-1-[(2R,3S,4R,5S)-5-(6-Amino-purin-9-ylmethyl)-3,4-dihydroxy-tetrahydro-furan-2-ylmethoxycarbonyl]-3-methylsulfanyl-propyl-ammonium]
27	CSCC[C@H](N)C(=O)N(O)C[C@H]1O[C@@H](n2cnc3c(N)ncnc32)[C@H](O)[C@@H]1O [(S)-1-{[(2R,3S,4R,5R)-5-(6-Amino-purin-9-yl)-3,4-dihydroxy-tetrahydro-furan-2-ylmethyl]-hydroxy-carbamoyl}-3-methylsulfanyl-propyl-ammonium]
> 256	CSCC[C@H](N)C(=O)OC[C@H]1O[C@@H](CCn2nnc(-c3ccccc3)n2)[C@H](O)[C@@H]1O [(S)-1-{(2R,3S,4R,5S)-3,4-Dihydroxy-5-[2-(5-phenyl-tetrazol-2-yl)-ethyl]-tetrahydro-furan-2-ylmethoxycarbonyl}-3-methylsulfanyl-propyl-ammonium]
8.3	CSCC[C@H](N)C(=O)OC[C@H]1O[C@@H](CCn2cnc3c(N)ncnc32)[C@H](O)[C@@H]1O [(S)-1-{(2R,3S,4R,5S)-5-[2-(6-Amino-purin-9-yl)-ethyl]-3,4-dihydroxy-tetrahydro-furan-2-ylmethoxycarbonyl}-3-methylsulfanyl-propyl-ammonium]
63	CSCC[C@H](N)C(=O)N(O)C[C@H]1O[C@@H](Cn2cnc3c(NCc4ccccc4)ncnc32)[C@H](O)[C@@H]1O [(S)-1-{[(2R,3S,4R,5S)-5-(6-Benzylamino-purin-9-ylmethyl)-3,4-dihydroxy-tetrahydro-furan-2-ylmethyl]-hydroxy-carbamoyl}-3-methylsulfanyl-propyl-ammonium]
56	CSCC[C@H](N)C(=O)N(O)C[C@H]1O[C@@H](CCn2cnc3c(N)ncnc32)[C@H](O)[C@@H]1O [(S)-1-({(2R,3S,4R,5S)-5-[2-(6-Amino-purin-9-yl)-ethyl]-3,4-dihydroxy-tetrahydro-furan-2-ylmethyl}-hydroxy-carbamoyl)-3-methylsulfanyl-propyl-ammonium]
33.2	CSCC[C@H](N)C(=O)OC[C@H]1O[C@@H](CCn2cnc3c(NCc4ccccc4)ncnc32)[C@H](O)[C@@H]1O [(S)-1-{(2R,3S,4R,5S)-5-[2-(6-Benzylamino-purin-9-yl)-ethyl]-3,4-dihydroxy-tetrahydro-furan-2-ylmethoxycarbonyl}-3-methylsulfanyl-propyl-ammonium]
26	CSCC[C@H](N)C(=O)N(O)C[C@H]1O[C@@H](Cn2cnc3c(N)ncnc32)[C@H](O)[C@@H]1O [(S)-1-{[(2R,3S,4R,5S)-5-(6-Amino-purin-9-ylmethyl)-3,4-dihydroxy-tetrahydro-furan-2-ylmethyl]-hydroxy-carbamoyl}-3-methylsulfanyl-propyl-ammonium]
17	CSCC[C@H](N)C(=O)N(O)C[C@H]1O[C@@H](Cn2nnc(-c3ccccc3)n2)[C@H](O)[C@@H]1O [(S)-1-{[(2R,3S,4R,5S)-3,4-Dihydroxy-5-(5-phenyl-tetrazol-2-ylmethyl)-tetrahydro-furan-2-ylmethyl]-hydroxy-carbamoyl}-3-methylsulfanyl-propyl-ammonium]
16.5	CSCC[C@H](N)C(=O)OC[C@H]1O[C@@H](Cn2cnc3c(NCc4ccccc4)ncnc32)[C@H](O)[C@@H]1O [(S)-1-[(2R,3S,4R,5S)-5-(6-Benzylamino-purin-9-ylmethyl)-3,4-dihydroxy-tetrahydro-furan-2-ylmethoxycarbonyl]-3-methylsulfanyl-propyl-ammonium]

Each compound was assayed against Isoleucine--tRNA ligase (Escherichia coli) (UniProt P00956) (assay: Inhibition of [3H]isoleucyl incorporation by Escherichia coli isoleucyl-tRNA synthetase (IleRS)).
Chain of Isoleucine--tRNA ligase (Escherichia coli) (P00956 whole entry, looked up): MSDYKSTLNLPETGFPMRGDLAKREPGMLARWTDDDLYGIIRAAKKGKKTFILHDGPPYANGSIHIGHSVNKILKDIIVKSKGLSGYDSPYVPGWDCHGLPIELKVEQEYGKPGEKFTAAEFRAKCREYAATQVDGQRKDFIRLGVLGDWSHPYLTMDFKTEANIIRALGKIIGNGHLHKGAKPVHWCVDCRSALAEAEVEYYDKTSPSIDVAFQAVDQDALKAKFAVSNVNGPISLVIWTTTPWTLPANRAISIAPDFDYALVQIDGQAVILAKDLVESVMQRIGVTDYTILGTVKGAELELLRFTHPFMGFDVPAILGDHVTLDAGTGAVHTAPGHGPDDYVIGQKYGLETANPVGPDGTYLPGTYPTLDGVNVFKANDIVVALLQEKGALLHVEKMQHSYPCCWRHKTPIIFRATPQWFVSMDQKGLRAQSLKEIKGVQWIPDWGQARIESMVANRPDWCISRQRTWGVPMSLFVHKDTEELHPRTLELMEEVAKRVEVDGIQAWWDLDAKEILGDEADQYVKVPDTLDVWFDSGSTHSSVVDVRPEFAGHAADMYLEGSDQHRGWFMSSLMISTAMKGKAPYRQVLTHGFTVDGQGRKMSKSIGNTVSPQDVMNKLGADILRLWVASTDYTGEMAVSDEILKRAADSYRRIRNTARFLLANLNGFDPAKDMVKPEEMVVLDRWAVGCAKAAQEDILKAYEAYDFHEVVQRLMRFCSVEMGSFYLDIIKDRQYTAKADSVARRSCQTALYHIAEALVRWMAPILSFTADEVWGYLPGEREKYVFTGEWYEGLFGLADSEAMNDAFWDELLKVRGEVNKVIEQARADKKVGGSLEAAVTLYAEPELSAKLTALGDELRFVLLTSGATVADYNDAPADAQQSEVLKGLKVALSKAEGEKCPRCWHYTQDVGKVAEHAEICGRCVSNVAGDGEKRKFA

IC50 [µM]	Structure (SMILES)
183	CC[C@H](C)[C@H](N)C(=O)OC[C@H]1O[C@@H](n2cnc3c(N)ncnc32)[C@H](O)[C@@H]1O [(1S,2S)-1-[(2R,3S,4R,5R)-5-(6-Amino-purin-9-yl)-3,4-dihydroxy-tetrahydro-furan-2-ylmethoxycarbonyl]-2-methyl-butyl-ammonium]
84	CC[C@H](C)[C@H](N)C(=O)OC[C@H]1O[C@@H](CCn2cnc3c(NCc4ccccc4)ncnc32)[C@H](O)[C@@H]1O [(1S,2S)-1-{(2R,3S,4R,5S)-5-[2-(6-Benzylamino-purin-9-yl)-ethyl]-3,4-dihydroxy-tetrahydro-furan-2-ylmethoxycarbonyl}-2-methyl-butyl-ammonium]
> 128	CC[C@H](C)[C@H](N)C(=O)OC[C@H]1O[C@@H](Cn2cnc3c(N)ncnc32)[C@H](O)[C@@H]1O [(1S,2S)-1-[(2R,3S,4R,5S)-5-(6-Amino-purin-9-ylmethyl)-3,4-dihydroxy-tetrahydro-furan-2-ylmethoxycarbonyl]-2-methyl-butyl-ammonium]
> 128	CC[C@H](C)[C@H](N)C(=O)N(O)C[C@H]1O[C@@H](Cn2cnc3c(N)ncnc32)[C@H](O)[C@@H]1O [(1S,2S)-1-{[(2R,3S,4R,5S)-5-(6-Amino-purin-9-ylmethyl)-3,4-dihydroxy-tetrahydro-furan-2-ylmethyl]-hydroxy-carbamoyl}-2-methyl-butyl-ammonium]
63.6	CC[C@H](C)[C@H](N)C(=O)OC[C@H]1O[C@@H](CCn2nnc(-c3ccccc3)n2)[C@H](O)[C@@H]1O [(1S,2S)-1-{(2R,3S,4R,5S)-3,4-Dihydroxy-5-[2-(5-phenyl-tetrazol-2-yl)-ethyl]-tetrahydro-furan-2-ylmethoxycarbonyl}-2-methyl-butyl-ammonium]
> 128	CC[C@H](C)[C@H](N)C(=O)N(O)C[C@H]1O[C@@H](CCn2nnc(-c3ccccc3)n2)[C@H](O)[C@@H]1O [(1S,2S)-1-({(2R,3S,4R,5S)-3,4-Dihydroxy-5-[2-(5-phenyl-tetrazol-2-yl)-ethyl]-tetrahydro-furan-2-ylmethyl}-hydroxy-carbamoyl)-2-methyl-butyl-ammonium]
> 128	CC[C@H](C)[C@H](N)C(=O)N(O)C[C@H]1O[C@@H](CCn2cnc3c(N)ncnc32)[C@H](O)[C@@H]1O [(1S,2S)-1-({(2R,3S,4R,5S)-5-[2-(6-Amino-purin-9-yl)-ethyl]-3,4-dihydroxy-tetrahydro-furan-2-ylmethyl}-hydroxy-carbamoyl)-2-methyl-butyl-ammonium]
> 128	CC[C@H](C)[C@H](N)C(=O)OC[C@H]1O[C@@H](CCn2cnc3c(N)ncnc32)[C@H](O)[C@@H]1O [(1S,2S)-1-{(2R,3S,4R,5S)-5-[2-(6-Amino-purin-9-yl)-ethyl]-3,4-dihydroxy-tetrahydro-furan-2-ylmethoxycarbonyl}-2-methyl-butyl-ammonium]
> 128	CC[C@H](C)[C@H](N)C(=O)N(O)C[C@H]1O[C@@H](CCn2cnc3c(NCc4ccccc4)ncnc32)[C@H](O)[C@@H]1O [(1S,2S)-1-({(2R,3S,4R,5S)-5-[2-(6-Benzylamino-purin-9-yl)-ethyl]-3,4-dihydroxy-tetrahydro-furan-2-ylmethyl}-hydroxy-carbamoyl)-2-methyl-butyl-ammonium]
181	CC[C@H](C)[C@H](N)C(=O)N(O)C[C@H]1O[C@@H](n2cnc3c(N)ncnc32)[C@H](O)[C@@H]1O [(1S,2S)-1-{[(2R,3S,4R,5R)-5-(6-Amino-purin-9-yl)-3,4-dihydroxy-tetrahydro-furan-2-ylmethyl]-hydroxy-carbamoyl}-2-methyl-butyl-ammonium]
